The values that follow come from patent US20230303561A1, “PYRIMIDINONE DERIVATIVE, PREPARATION METHOD THEREOF AND USE THEREOF IN RESISTING MYCOBACTERIUM TUBERCULOSIS INFECTION” (INSTITUTE OF MEDICINAL BIOTECHNOLOGY, CHINESE ACADEMY OF …, priority 2020, published 2023).

Molecules are shown by their SMILES. Converted amounts (≈) assume the structure as drawn.

One test relates to MTB H37Rv. Put plainly: Bacteriostasis experiment: MIC in 96-well plate, two-fold dilution method. The class given is cell-based, Mycobacterium tuberculosis. The conditions noted are these: MTB H37Rv (ATCC 27294), 7H9 medium, 37° C., about 10 days.
On to `CCCSc1nc2c(c(=O)[nH]1)C(c1ccc3occc3c1)CC(=O)N2` (centres unmarked) [LSL-11-17, 2-propylmercapto-5-(benzofuran-5-yl)-5,6-dihydropyrido[2,3-d]pyrimidin-4,7(3H,8H)-dione], for which the “Inhibitory activity against Mycobacterium tuberculosis, MIC, MTB H37Rv” value was 4 µg/mL.

In the case of `CCCSc1nc2c(c(=O)[nH]1)C(c1ccoc1)CC(=O)N2` (centres unmarked) [LSL-11-38, 2-propylmercapto-5-(furan-3-y1)-5,6-dihydropyrido[2,3-d]pyrimidin-4,7(3H,8H)-dione], the “Inhibitory activity against Mycobacterium tuberculosis, MIC, MTB H37Rv” value turned out to be 1 µg/mL.

Still in this test, the particulars now being: MTB H37Rv, statement on Table 1 data.
As for `CCCSc1nc2nccc(-c3ccc4ncccc4c3)c2c(=O)[nH]1` [LSL-11-08, 2-propylmercapto-5-(quinolin-6-yl)-pyrido[2,3-d]pyrimidin-4(3H)-one], the “anti-mycobacterium tuberculosis MIC compared with the positive control drug INH” value is reported as “equivalent to that of the positive control drug INH”. The same measure, in the same setting: with `CCCSc1nc2[nH]c(=O)cc(-c3ccc(OC)cc3)c2c(=O)[nH]1` [LSL-11-09, 2-propylmercapto-5-(4-methoxyphenyl)-pyrido[2,3-d]pyrimidin-4,7(3H,8H)-dione] the entry was “equivalent to that of the positive control drug INH”. Still for that read-out and setting: with `CCCSc1nc2c(c(=O)[nH]1)C(c1ccc(SC)cc1)CC(=O)N2` (centres unmarked) [LSL-11-21, 2-propylmercapto-5-(4-methylthiophenyl)-5,6-dihydropyrido[2,3-d]pyrimidin-4,7(3H,8H)-dione] the entry was “equivalent to that of the positive control drug INH”; with `CCCCCCCOc1ccc(C2CC(=O)Nc3nc(SCCC)[nH]c(=O)c32)cc1` (centres unmarked) [LSL-11-39, 2-propylmercapto-5-(4-heptoxyphenyl)-5,6-dihydropyrido[2,3-d]pyrimidin-4,7(3H,8H)-dione], “equivalent to that of the positive control drug INH”.

The same test, now with this note: Mycobacterium tuberculosis, ATCC 27294 / H37Rv, 240 h, MTB H37Rv (ATCC 27294), 7H9 medium, 37° C., about 10 days; read-out: Inhibitory activity against Mycobacterium tuberculosis, MIC, MTB H37Rv.
Regarding `CCCSc1nc2nccc(-c3ccc4ncccc4c3)c2c(=O)[nH]1` [LSL-11-08, 2-propylmercapto-5-(quinolin-6-yl)-pyrido[2,3-d]pyrimidin-4(3H)-one], the minimum inhibitory concentration (MIC) is 0.25 µg/mL (≈ 0.718 µM). Same read-out and setting: with `CCCSc1nc2[nH]c(=O)cc(-c3ccc(OC)cc3)c2c(=O)[nH]1` [LSL-11-09, 2-propylmercapto-5-(4-methoxyphenyl)-pyrido[2,3-d]pyrimidin-4,7(3H,8H)-dione] the figure was 0.25 µg/mL (≈ 0.728 µM); with `CCCSc1nc2c(c(=O)[nH]1)C(c1nc3ccccc3s1)CC(=O)N2` (centres unmarked) [LSL-11-18, 2-propylmercapto-5-(benzothiazol-2-yl)-5,6-dihydropyrido[2,3-d]pyrimidin-4,7(3H,8H)-dione], 2 µg/mL (≈ 5.37 µM); with `CCCSc1nc2c(c(=O)[nH]1)C(c1ccc(Sc3ccccc3)cc1)CC(=O)N2` (centres unmarked) [LSL-11-19, 2-propylmercapto-5-(4-phenylthiophenyl)-5,6-dihydropyrido[2,3-d]pyrimidin-4,7(3H,8H)-dione], 8 µg/mL (≈ 18.9 µM).

Regarding `CCCSc1nc2c(c(=O)[nH]1)C(c1ccc(S(C)(=O)=O)cc1)CC(=O)N2` (centres unmarked) [LSL-11-20, 2-propylmercapto-5-(4-methanesulfonylphenyl)-5,6-dihydropyrido[2,3-d]pyrimidin-4,7(3H,8H)-dione], the minimal inhibitory concentration (MIC) was found to be 1 µg/mL (≈ 2.54 µM). Same read-out and setting: with `CCCSc1nc2c(c(=O)[nH]1)C(c1ccc(SC)cc1)CC(=O)N2` (centres unmarked) [LSL-11-21, 2-propylmercapto-5-(4-methylthiophenyl)-5,6-dihydropyrido[2,3-d]pyrimidin-4,7(3H,8H)-dione] the figure was 0.5 µg/mL (≈ 1.38 µM); with `CCCSc1nc2c(c(=O)[nH]1)C(c1ccc(Br)c([N+](=O)[O-])c1)CC(=O)N2` (centres unmarked) [LSL-11-22, 2-propylmercapto-5-(3-nitro-4-bromophenyl)-5,6-dihydropyrido[2,3-d]pyrimidin-4,7(3H,8H)-dione], 1 µg/mL (≈ 2.28 µM).

As to `CCCSc1nc2c(c(=O)[nH]1)C(c1ccc(C(=O)O)cc1)CC(=O)N2` (centres unmarked) [LSL-11-24, 2-propylmercapto-5-(4-carboxyphenyl)-5,6-dihydropyrido[2,3-d]pyrimidin-4,7(3H,8H)-dione], the MIC came out at 2 µg/mL (≈ 5.56 µM). As to `CCCSc1nc2c(c(=O)[nH]1)C(c1ccc(Br)cc1[N+](=O)[O-])CC(=O)N2` (centres unmarked) [LSL-11-25, 2-propylmercapto-5-(2-nitro-4-bromophenyl)-5,6-dihydropyrido[2,3-d]pyrimidin-4,7(3H,8H)-dione], the MIC was determined as 4 µg/mL (≈ 9.11 µM). On the same count and under the same terms, with `CCCSc1nc2c(c(=O)[nH]1)C(c1ccccn1)CC(=O)N2` (centres unmarked) [LSL-11-26, 2-propylmercapto-5-(pyridin-2-yl)-5,6-dihydropyrido[2,3-d]pyrimidin-4,7(3H,8H)-dione] the figure was 2 µg/mL (≈ 6.32 µM). With `CCCSc1nc2c(c(=O)[nH]1)C(c1ccc(OCC(C)C)cc1)CC(=O)N2` (centres unmarked) [LSL-11-27, 2-propylmercapto-5-(4-isobutoxyphenyl)-5,6-dihydropyrido[2,3-d]pyrimidin-4,7(3H,8H)-dione], the MIC stood at 1 µg/mL (≈ 2.58 µM). Consider `CCCSc1nc2c(c(=O)[nH]1)C(c1cccnc1)CC(=O)N2` (centres unmarked) [LSL-11-28, 2-propylmercapto-5-(pyridin-3-yl)-5,6-dihydropyrido[2,3-d]pyrimidin-4,7(3H,8H)-dione], for which the MIC was 2 µg/mL (≈ 6.32 µM).

As for `CCCSc1nc2c(c(=O)[nH]1)C(c1ccncc1)CC(=O)N2` (centres unmarked) [LSL-11-29, 2-propylmercapto-5-(pyridin-4-yl)-5,6-dihydropyrido[2,3-d]pyrimidin-4,7(3H,8H)-dione], the MIC amounted to 8 µg/mL (≈ 25.3 µM). Same read-out and setting: in the case of `CCCSc1nc2c(c(=O)[nH]1)C(C1CCCCC1)CC(=O)N2` (centres unmarked) [LSL-11-30, 2-propylmercapto-5-cyclohexyl-5,6-dihydropyrido[2,3-d]pyrimidin-4,7(3H,8H)-dione] it was 16 µg/mL (≈ 49.8 µM); in that of `CCCSc1nc2c(c(=O)[nH]1)C(C1CCCC1)CC(=O)N2` (centres unmarked) [LSL-11-31, 2-propylmercapto-5-cyclopentyl-5,6-dihydropyrido[2,3-d]pyrimidin-4,7(3H,8H)-dione], 16 µg/mL (≈ 52 µM). For the molecule `CCCSc1nc2c(c(=O)[nH]1)C(c1ccc3c(c1)CCO3)CC(=O)N2` (centres unmarked) [LSL-11-33, 2-propylmercapto-5-(2,3-dihydrobenzofuran-5-yl)-5,6-dihydropyrido[2,3-d]pyrimidin-4,7(3H,8H)-dione], the MIC worked out at 2 µg/mL (≈ 5.6 µM). For the molecule `CCCSc1nc2c(c(=O)[nH]1)C(c1ccc3nccnc3c1)CC(=O)N2` (centres unmarked) [LSL-11-34, 2-propylmercapto-5-(quinoxalin-6-yl)-5,6-dihydropyrido[2,3-d]pyrimidin-4,7(3H,8H)-dione], the MIC was 4 µg/mL (≈ 10.9 µM). On to `CCCSc1nc2c(c(=O)[nH]1)C(c1ccc(OC)nc1)CC(=O)N2` (centres unmarked) [LSL-11-35, 2-propylmercapto-5-(6-methoxypyridin-3-yl)-5,6-dihydropyrido[2,3-d]pyrimidin-4,7(3H,8H)-dione], for which the MIC was 1 µg/mL (≈ 2.89 µM). With `CCCSc1nc2c(c(=O)[nH]1)C(c1cnc3ccccc3c1)CC(=O)N2` (centres unmarked) [LSL-11-36, 2-propylmercapto-5-(quinolin-3-yl)-5,6-dihydropyrido[2,3-d]pyrimidin-4,7(3H,8H)-dione], the minimum inhibitory concentration (MIC) turned out to be 8 µg/mL (≈ 21.8 µM).

Still in this test, the particulars now being: Mycobacterium tuberculosis, ATCC 27294 / H37Rv, 240 h, read-out: Inhibitory activity against Mycobacterium tuberculosis, MIC, MTB H37Rv.
On to `CCCCCCCOc1ccc(C2CC(=O)Nc3nc(SCCC)[nH]c(=O)c32)cc1` (centres unmarked) [LSL-11-39, 2-propylmercapto-5-(4-heptoxyphenyl)-5,6-dihydropyrido[2,3-d]pyrimidin-4,7(3H,8H)-dione], for which the MIC was determined as 0.625 µg/mL (≈ 1.45 µM).

By MIC is commonly meant the lowest concentration that inhibits growth of the organism.
